# Measured values taken from publication PMC6253949, “The Inhibitory Action of Kohamaic Acid A Derivatives on Mammalian DNA Polymerase β” (Molecules, 2008).
# How the values were obtained:
# Type in all cases: biochemical
# [1] = target: T1, T4 DNA polymerase (Enterobacteria phage T4, UniProt P04415); test: DNA polymerase assay, T4 pol
# T1 construct: purchased Takara (Kyoto, Japan)
# T1 sequence (P04415 1-898): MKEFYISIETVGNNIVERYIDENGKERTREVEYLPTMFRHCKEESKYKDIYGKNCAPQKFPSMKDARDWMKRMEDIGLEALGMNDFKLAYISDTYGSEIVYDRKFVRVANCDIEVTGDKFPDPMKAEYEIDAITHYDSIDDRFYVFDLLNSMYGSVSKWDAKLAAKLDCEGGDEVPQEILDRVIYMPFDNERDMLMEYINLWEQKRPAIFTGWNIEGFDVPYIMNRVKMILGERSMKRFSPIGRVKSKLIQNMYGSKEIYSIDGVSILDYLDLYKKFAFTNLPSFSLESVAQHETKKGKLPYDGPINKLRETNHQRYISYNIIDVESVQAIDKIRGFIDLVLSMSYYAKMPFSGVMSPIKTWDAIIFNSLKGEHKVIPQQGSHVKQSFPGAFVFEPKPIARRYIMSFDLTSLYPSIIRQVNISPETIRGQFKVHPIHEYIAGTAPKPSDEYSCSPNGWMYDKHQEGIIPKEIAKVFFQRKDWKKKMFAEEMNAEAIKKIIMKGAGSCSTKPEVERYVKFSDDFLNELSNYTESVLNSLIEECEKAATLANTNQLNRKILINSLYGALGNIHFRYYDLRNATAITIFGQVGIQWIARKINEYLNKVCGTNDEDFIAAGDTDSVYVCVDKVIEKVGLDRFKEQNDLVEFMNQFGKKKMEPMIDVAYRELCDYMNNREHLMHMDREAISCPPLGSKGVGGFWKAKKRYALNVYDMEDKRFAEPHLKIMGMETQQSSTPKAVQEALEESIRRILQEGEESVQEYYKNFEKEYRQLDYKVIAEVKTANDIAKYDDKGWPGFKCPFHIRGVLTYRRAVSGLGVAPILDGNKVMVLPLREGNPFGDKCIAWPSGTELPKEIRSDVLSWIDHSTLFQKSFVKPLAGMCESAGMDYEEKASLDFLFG
# Text: (§1) Pol α was purified from calf thymus by immuno-affinity column chromatography as described by Tamai et al.. Recombinant rat pol β was purified from E. coli JMpβ5 as described by Date et al.. The human pol γ catalytic gene was cloned into pFastBac. Histidine-tagged enzyme was expressed using the BAC-TO-BAC HT Baculovirus Expression System according to the supplier's manual (LIFE TECHNOLOGIES, MD, USA) and purified using ProBoundresin (Invitrogen Japan, Tokyo, Japan). Human pols δ and ε were purified by the nuclear fractionation of human peripheral blood cancer cells (Molt-4) using the second subunit of pols δ and ε-conjugated affinity column chromatography, respectively. Recombinant human pols η and ι tagged with His6 at their C-terminal were expressed in SF9 insect cells using the baculovirus expression system, and were purified as described previously. A truncated form of pol κ (i.e., hDINB1DC) with 6 x His-tags attached at the C-terminal was overproduced using the BAC-to-BAC Baculovirus Expression System kit (GIBCO BRL, MD, USA) and purified as described previously. […]
# (§2) For pols, poly(dA)/oligo(dT)12-18 (A/T = 2/1) and dTTP were used as the DNA template-primer and nucleotide (i.e., dNTP) substrate, respectively. […] Activity without the inhibitor was considered 100%, and the remaining activity at each concentration of the inhibitor was determined relative to this value. […]
# [2] = target: T2, Rat DNA polymerase β (Rattus norvegicus, UniProt P06766); test: DNA polymerase assay, rat pol β; settings: for Inhibitory mode: Lineweaver Burk plot
# T2 construct: made in house; host or cells: E. coli JMpβ5
# Text: Pol α was purified from calf thymus by immuno-affinity column chromatography as described by Tamai et al.. Recombinant rat pol β was purified from E. coli JMpβ5 as described by Date et al.. The human pol γ catalytic gene was cloned into pFastBac. Histidine-tagged enzyme was expressed using the BAC-TO-BAC HT Baculovirus Expression System according to the supplier's manual (LIFE TECHNOLOGIES, MD, USA) and purified using ProBoundresin (Invitrogen Japan, Tokyo, Japan). Human pols δ and ε were purified by the nuclear fractionation of human peripheral blood cancer cells (Molt-4) using the second subunit of pols δ and ε-conjugated affinity column chromatography, respectively. Recombinant human pols η and ι tagged with His6 at their C-terminal were expressed in SF9 insect cells using the baculovirus expression system, and were purified as described previously. A truncated form of pol κ (i.e., hDINB1DC) with 6 x His-tags attached at the C-terminal was overproduced using the BAC-to-BAC Baculovirus Expression System kit (GIBCO BRL, MD, USA) and purified as described previously. Recombinant human His-pol λ was overexpressed and purified according to a method described previously. Fish pol δ was purified from the testis of cherry salmon (Oncorhynchus masou). Pol I (α-like) from a higher plant, cauliflower inflorescence, was purified according to the methods outlined by Sakaguchi et al.. The Klenow fragment of pol I from E. coli was purchased from Worthington Biochemical Corp. (Freehold, NJ, USA). Taq pol, T4 pol, T7 RNA polymerase and T4 polynucleotide kinase were purchased from Takara (Kyoto, Japan). Bovine pancreas deoxyribonuclease I (DNase I) was obtained from Stratagene Cloning Systems (La Jolla, CA, USA).
# The reaction mixtures for pol α, pol β, fish pol δ, plant pol I (α-like) and prokaryotic pols were described previously, and those for pol γ, and pols δ and ε were as described by Umeda et al. and Ogawa et al., respectively. The reaction mixtures for pols η, ι and κ were the same as for pol α, and the reaction mixture for pol λ was the same as that for pol β.
# For pols, poly(dA)/oligo(dT)12-18 (A/T = 2/1) and dTTP were used as the DNA template-primer and nucleotide (i.e., dNTP) substrate, respectively. KA-A analogues (i.e., compounds 1–12) were dissolved in distilled dimethyl sulfoxide (DMSO) at various concentrations and sonicated for 30 sec. Aliquots of 4 μL of sonicated samples were mixed with 16 μL of each enzyme (final amount 0.05 units) in 50 mM Tris-HCl (pH 7.5) containing 1 mM dithiothreitol, 50% glycerol and 0.1 mM EDTA, and kept at 0 °C for 10 min. These inhibitor-enzyme mixtures (8 μl) were added to 16 μL of each of the enzyme standard reaction mixtures, and incubation was carried out at 37 °C for 60 min, except for Taq pol, which was incubated at 74 °C for 60 min. Activity without the inhibitor was considered 100%, and the remaining activity at each concentration of the inhibitor was determined relative to this value. One unit of pol activity was defined as the amount of enzyme that catalyzed the incorporation of 1 nmol of dNTP (i.e., dTTP) into synthetic DNA template-primers in 60 min at 37 °C under the normal reaction conditions for each enzyme.
# [3] = target: T3, Taq DNA polymerase (Thermus aquaticus, UniProt P19821); test: DNA polymerase assay, Taq pol; settings: incubated at 74 °C
# T3 construct: purchased Takara (Kyoto, Japan)
# Text: as §1, §2
# [4] = target: T4, T7 RNA polymerase (Escherichia phage T7, UniProt P00573); test: T7 RNA polymerase assay
# T4 construct: purchased Takara (Kyoto, Japan)
# Text: as §1
# The primase activity of calf pol α, the activities of T7 RNA polymerase, T4 polynucleotide kinase and bovine DNase I were measured in standard assays according to the manufacturer's specifications as described by Tamiya-Koizumi et al., Nakayama et al., Soltis et al., and Lu and Sakaguchi, respectively.
# [5] = target: T5, E. coli DNA polymerase I (Klenow fragment) (Escherichia coli, UniProt P00582); test: DNA polymerase assay, Klenow fragment
# T5 construct: The Klenow fragment of pol I from E. coli; purchased Worthington Biochemical Corp. (Freehold, NJ, USA)
# Text: as §1, §2
# T4 sequence (P00573 whole entry): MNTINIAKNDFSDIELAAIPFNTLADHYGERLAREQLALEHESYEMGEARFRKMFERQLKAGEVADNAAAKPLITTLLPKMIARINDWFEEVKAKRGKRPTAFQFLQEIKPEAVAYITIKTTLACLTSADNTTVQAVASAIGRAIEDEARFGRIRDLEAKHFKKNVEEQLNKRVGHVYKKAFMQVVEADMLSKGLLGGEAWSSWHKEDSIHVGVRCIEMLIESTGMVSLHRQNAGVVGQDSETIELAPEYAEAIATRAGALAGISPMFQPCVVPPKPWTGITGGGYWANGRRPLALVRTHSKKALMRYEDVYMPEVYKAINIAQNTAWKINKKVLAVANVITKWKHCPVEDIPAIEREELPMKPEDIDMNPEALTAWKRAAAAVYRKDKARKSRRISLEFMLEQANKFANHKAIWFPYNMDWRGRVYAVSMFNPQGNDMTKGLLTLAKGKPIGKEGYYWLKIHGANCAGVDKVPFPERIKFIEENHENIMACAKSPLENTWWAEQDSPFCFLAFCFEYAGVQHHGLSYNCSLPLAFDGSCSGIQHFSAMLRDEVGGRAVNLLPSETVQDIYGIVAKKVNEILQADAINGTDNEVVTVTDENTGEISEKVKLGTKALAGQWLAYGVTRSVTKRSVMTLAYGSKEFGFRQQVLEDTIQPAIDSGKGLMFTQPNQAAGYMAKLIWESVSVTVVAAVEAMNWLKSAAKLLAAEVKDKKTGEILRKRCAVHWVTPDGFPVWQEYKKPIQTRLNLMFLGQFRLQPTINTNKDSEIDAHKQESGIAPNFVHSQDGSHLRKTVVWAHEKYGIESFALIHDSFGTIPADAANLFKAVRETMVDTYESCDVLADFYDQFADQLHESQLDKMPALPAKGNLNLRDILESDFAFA
# T3 sequence (P19821 whole entry): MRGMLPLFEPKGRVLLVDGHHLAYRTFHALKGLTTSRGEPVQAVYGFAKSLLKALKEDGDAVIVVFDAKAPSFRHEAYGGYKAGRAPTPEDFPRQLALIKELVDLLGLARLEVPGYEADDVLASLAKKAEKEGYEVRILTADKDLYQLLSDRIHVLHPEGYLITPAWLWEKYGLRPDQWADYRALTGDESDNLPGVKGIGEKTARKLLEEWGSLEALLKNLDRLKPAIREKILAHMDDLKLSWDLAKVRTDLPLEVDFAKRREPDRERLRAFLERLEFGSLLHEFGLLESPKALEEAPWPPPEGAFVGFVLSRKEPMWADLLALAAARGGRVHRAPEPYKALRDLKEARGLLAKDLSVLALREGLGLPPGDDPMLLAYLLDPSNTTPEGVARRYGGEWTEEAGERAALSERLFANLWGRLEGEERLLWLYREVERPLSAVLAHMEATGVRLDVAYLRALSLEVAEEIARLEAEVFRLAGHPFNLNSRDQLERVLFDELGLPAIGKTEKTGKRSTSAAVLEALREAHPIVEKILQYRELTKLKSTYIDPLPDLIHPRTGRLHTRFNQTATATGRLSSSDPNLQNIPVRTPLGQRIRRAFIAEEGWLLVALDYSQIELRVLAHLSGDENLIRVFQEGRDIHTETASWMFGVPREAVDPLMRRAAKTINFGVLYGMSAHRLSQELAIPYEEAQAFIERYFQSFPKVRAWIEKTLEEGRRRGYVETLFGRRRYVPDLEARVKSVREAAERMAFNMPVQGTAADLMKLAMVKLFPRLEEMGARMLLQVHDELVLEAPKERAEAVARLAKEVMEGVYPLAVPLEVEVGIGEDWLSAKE
# T5 sequence (P00582 324-928): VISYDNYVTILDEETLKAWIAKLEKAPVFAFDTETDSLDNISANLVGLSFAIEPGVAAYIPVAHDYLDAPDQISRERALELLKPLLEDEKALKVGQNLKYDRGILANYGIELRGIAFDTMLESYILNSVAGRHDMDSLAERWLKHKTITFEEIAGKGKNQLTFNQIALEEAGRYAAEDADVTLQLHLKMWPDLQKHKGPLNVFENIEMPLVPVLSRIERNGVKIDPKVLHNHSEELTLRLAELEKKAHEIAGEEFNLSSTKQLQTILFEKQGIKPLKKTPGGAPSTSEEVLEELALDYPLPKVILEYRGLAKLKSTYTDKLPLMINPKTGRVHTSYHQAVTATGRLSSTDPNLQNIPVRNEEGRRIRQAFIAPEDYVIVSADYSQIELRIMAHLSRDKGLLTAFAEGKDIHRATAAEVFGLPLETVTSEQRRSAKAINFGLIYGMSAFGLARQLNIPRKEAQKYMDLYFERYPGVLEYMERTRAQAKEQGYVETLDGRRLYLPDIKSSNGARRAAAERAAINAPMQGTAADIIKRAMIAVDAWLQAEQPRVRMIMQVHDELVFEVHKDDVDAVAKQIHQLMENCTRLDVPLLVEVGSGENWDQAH
smiles,measurement,setting,value
"CC1=CC[C@H]2C(C)(C)CCC[C@]2(C)[C@H]1CCCCCCCCCCCCCCCCC(=O)O (relative stereo) [compound 11, (1S*,4aS*,8aS*)-17-(1,4,4a,5,6,7,8,8a-octahydro-2,5,5,8a-tetramethylnaphthalen-1-yl)heptadecanoic acid]",IC50,[1],> 200 µM
same,Relative activity of pol β,[2]; 10 μM compound 11,15.5 ± 0.78%
same,Relative activity of pol β,[2]; 10 μM compound 11 + 50 μM poly (rC),15.2 ± 0.74%
same,Relative activity of pol β,[2]; 10 μM compound 11 + 200 μg/ml BSA,15.9 ± 1.1%
same,Relative activity of pol β,[2]; 10 μM compound 11 + 0.05 % NP-40,96.1 ± 7.6%
same,Relative activity of pol β,[2]; 10 μM compound 11 + 0.1 % NP-40,100 ± 8.8%
same,Relative activity of pol β,[2]; 100 μM compound 11,3.2 ± 0.16%
same,Relative activity of pol β,[2]; 100 μM compound 11 + 50 μM poly (rC),3.1 ± 0.15%
same,Relative activity of pol β,[2]; 100 μM compound 11 + 200 μg/ml BSA,3.3 ± 0.19%
same,Relative activity of pol β,[2]; 100 μM compound 11 + 0.05 % NP-40,62.5 ± 4.1%
same,Relative activity of pol β,[2]; 100 μM compound 11 + 0.1 % NP-40,95.0 ± 7.6%
same,Inhibitory effect on pol β compared with KA-A,[2]; 10 and 100 μM of compound (Figure 2B),strongest inhibitory effect
same,Ki,"[2]; DNA template-primer poly(dA)/oligo(dT)12-18, Dixon plot",1.96 µM
same,Vmax,"[2]; DNA template-primer poly(dA)/oligo(dT)12-18, unchanged at 0-9 μM compound 11",111 pmol/h
same,fold stronger pol β inhibitor than dideoxyTTP,[2]; comparison with dideoxyTTP,4 fold
same,Ki,"[2]; nucleotide substrate dTTP, Dixon plot",2.36 µM
same,Vmax,"[2]; nucleotide substrate dTTP, unchanged at 0-9 μM compound 11",62.5 pmol/h
same,IC50,"[2]; poly(dA)/oligo(dT)12-18 and dTTP, 0.05 units enzyme",5.5 ± 0.28 µM
same,Inhibitory mode,[2]; with respect to DNA template-primer,Competitive
same,Inhibitory mode,[2]; with respect to dNTP substrate,Competitive
same,IC50,[3],> 200 µM
same,Influence on T7 RNA polymerase activity,[4],not influenced
same,IC50,[5],> 200 µM
